In assay [1] the target is T1, PDIA3 (Homo sapiens, UniProt P30101).
T1 sequence (P30101 25-505): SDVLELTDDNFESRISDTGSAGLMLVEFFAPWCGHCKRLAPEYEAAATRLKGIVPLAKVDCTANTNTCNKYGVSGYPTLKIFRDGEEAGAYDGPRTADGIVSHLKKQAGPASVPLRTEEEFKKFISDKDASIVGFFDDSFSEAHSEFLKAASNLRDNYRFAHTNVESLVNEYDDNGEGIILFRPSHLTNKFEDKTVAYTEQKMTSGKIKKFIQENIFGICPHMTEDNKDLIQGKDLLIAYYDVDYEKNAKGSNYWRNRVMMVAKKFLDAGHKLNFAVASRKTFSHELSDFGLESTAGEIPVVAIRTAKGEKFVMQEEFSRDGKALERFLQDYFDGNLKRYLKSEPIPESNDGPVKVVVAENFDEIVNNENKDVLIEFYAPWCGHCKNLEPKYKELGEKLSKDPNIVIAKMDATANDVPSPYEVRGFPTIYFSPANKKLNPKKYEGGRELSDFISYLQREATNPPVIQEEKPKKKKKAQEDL
Kind of assay: CETSA and pull-down assay with probe SB1624. It is filed as binding. Details: endogenous in cells; host or cells: HEK293 BiFC-tau cells (TS-FITGE, CETSA, PEG-maleimide assay); SH-SY5Y cells (pull-down with probe SB1624). The following applies: CETSA 10 μM in HEK293 BiFC-tau cells; pull-down 5 μM SB1624 with or without 40 μM SB1617 in SH-SY5Y cells. The procedure: (§1) HEK293 BiFC-tau cells were treated with DMSO (0.1%) and a compound according to the present invention (10 μM) in the presence of thapsigargin (200 nM) for 3 hours. The cell suspension was heated at the indicated temperature range for 3 minutes and then at 25° C. for 3 minutes. The heated cells were washed with PBS and resuspended in Lysis Buffer A. For cell lysis, cell suspensions were freeze-thawed in liquid nitrogen three times. The cell lysate was washed by centrifugation at 20000 g, 4° C. for 20 minutes. Equal volumes of washed cell lysate were combined with SDS buffer and subjected to immunoblotting.
(§2) SH-SY5Y cells were seeded in 6-well plates and then treated with 1 μM thapsigargin and 5 μM SB1624 (probe compound) for 2.5 hours with or without 40 μM SB1617. Cells were exposed to 356 nm UV irradiation for 30 min on ice. After washing with cold PBS, cells were lysed in RIPA buffer and removed by centrifugation at […] for 15 minutes at 4° C. The protein concentration of the supernatant was determined by Pierce BCA Protein Assay Kit and the protein concentration was adjusted to 1 mg/mL. […] Proteins were eluted by boiling with 3×SDS sample buffer and analyzed by SDS-PAGE and Western blot. […]

Assay [2] concerns the target T2, DNAJC3 (Homo sapiens, UniProt Q13217).
T2 sequence (Q13217 32-504): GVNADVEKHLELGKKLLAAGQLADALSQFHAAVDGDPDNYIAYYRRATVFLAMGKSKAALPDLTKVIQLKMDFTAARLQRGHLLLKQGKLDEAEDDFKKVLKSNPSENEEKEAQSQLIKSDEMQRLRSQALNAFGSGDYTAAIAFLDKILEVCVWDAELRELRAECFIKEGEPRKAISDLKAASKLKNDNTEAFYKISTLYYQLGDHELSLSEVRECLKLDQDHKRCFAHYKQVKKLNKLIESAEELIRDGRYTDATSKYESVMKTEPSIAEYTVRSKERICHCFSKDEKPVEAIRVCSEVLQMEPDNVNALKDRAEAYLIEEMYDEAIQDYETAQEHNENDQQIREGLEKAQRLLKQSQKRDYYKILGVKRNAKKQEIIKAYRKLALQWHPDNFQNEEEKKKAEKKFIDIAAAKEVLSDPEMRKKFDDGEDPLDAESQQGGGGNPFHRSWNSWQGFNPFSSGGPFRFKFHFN
The experiment in a line: CETSA and pull-down assay with probe SB1624. It is filed as binding. Details: endogenous in cells; host or cells: HEK293 BiFC-tau cells (TS-FITGE, CETSA); SH-SY5Y cells (pull-down with probe SB1624). The following applies: CETSA 10 μM in HEK293 BiFC-tau cells; pull-down 5 μM SB1624 with or without 40 μM SB1617 in SH-SY5Y cells. The procedure: as §1, §2

Regarding `CN(Cc1ccc(Cl)cc1)c1ncnc2c1[C@@H]1OC[C@H](CN2)N1S(=O)(=O)c1ccc([N+](=O)[O-])cc1` [Compound 117], the “specific binding (CETSA, pull-down)” value in assay [1] and in assay [2] was “specifically binds” each time.

(Values after patent publication US20230322805A1, “NOVEL PYRIMIDODIAZEPINE DERIVATIVES OR USES THEREOF” (SPARK BIOPHARMA, INC., priority 2020, published 2023).)
